Experimental data published in patent US6492374B2, “Benzofuran derivatives, their preparation and use” (H. Lundbeck A/S, priority 1998, dated 2002).
Like-named read-outs stand apart in the source and are kept apart here.

Assays:
[1] = target: T1, cloned human 5-HT1A receptors (Homo sapiens, UniProt P08908); test: Inhibition of 3H-5-CT binding to human 5-HT1A receptors
T1 construct: expressed in transfected cells; host or cells: HeLa cells (HA7), stably transfected; cell homogenate
T1 sequence (P08908 1-422): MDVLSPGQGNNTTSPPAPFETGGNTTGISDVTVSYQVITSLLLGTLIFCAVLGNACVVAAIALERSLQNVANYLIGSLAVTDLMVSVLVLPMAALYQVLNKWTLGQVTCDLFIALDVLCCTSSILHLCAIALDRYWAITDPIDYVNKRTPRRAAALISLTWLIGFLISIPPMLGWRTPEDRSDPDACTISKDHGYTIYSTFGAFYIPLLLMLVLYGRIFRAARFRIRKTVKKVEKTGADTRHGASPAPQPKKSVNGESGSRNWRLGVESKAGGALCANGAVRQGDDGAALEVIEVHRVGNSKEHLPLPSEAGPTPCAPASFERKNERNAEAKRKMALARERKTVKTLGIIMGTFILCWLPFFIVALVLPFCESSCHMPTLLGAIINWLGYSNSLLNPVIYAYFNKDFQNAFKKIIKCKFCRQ
Method: Inhibition of ^3H-5CT Binding to Human 5-HT1A Receptors
Human 5-HT1A receptors (40 μg of cell homogenate) were incubated for 15 minutes at 37° C. in 50 mM Tris buffer at pH 7.7 in the presence of ^3H-5-CT. Non-specific binding was determined by including 10 μM of metergoline. The reaction was terminated by rapid filtration through Unifilter GF/B filters on a Tomtec Cell Harvester. Filters were counted in a Packard Top Counter.

[2] = system: serotonin reuptake (3H-5-HT uptake into whole rat brain synaptosomes); test: Inhibition of 3H-5-HT uptake into rat brain synaptosomes; type: biochemical
Method: Inhibition of ^3H-5HT Uptake Into Rat Brain Synaptosomes
Using this method, the ability of drugs to inhibit the accumulation of ^3H-5-HT into whole rat brain synaptosomes is determined in vitro.

[3] = cloned human 5-HT1A receptors expressed in HeLa cells (HA7)

SMILES	IC50 [1, 3]	IC50 [2]	Inhibition of serotonin reuptake % inhibition at 100 nM [2]	also measured
CN(CCCC1(c2ccc(F)cc2)OCc2cc(C#N)ccc21)Cc1cccc2c1OCCO2.O=C(O)C(=O)O (stereo not shown)				melting point: 160 to 162 °C
CN(CCCc1cccc2c1OCCO2)CCCC1(c2ccc(F)cc2)OCc2cc(C#N)ccc21.O=C(O)C(=O)O (single isomer, unassigned; (+)) [Compound 1b, (+)-1-[3-[[3-(1,4-Benzodioxan-5-yl)propyl]methylamino]propyl]-1-(4-fluorophenyl)-1,3-dihydroisobenzofuran-5-carbonitrile oxalate]	12 nM			melting point: 114 to 116 °C
CN(CCCC1(c2ccc(F)cc2)OCc2cc(C#N)ccc21)CCc1cccc2c1OCCO2.O=C(O)C(=O)O (stereo not shown) [Compound 1c, 1-[3-[[2-(1,4-Benzodioxan-5-yl)ethyl]methylamino]propyl]-1-(4-fluorophenyl)-1,3-dihydroisobenzofuran-5carbonitrile oxalate]	53 nM			melting point: 118 to 120 °C
CCN(CCCC1(c2ccc(F)cc2)OCc2cc(C#N)ccc21)CCc1c[nH]c2c(F)cc(F)cc12 (stereo not shown) [Compound 12u, 1-[3-[[2-(5,7-Difluoro-1H-indol-3-yl)ethyl]ethylamino]propyl]-1-(4-fluorophenyl)-1,3-dihydroisobenzofuran-5-carbonitrile]	9 nM	22 nM		
C=CCN(CCCC1(c2ccc(F)cc2)OCc2cc(C#N)ccc21)CCc1c[nH]c2ccc(Cl)cc12 (stereo not shown) [Compound 13f]	31 nM		16% inh. at 100 nM	
CN(CCCc1c[nH]c2ccc(Cl)cc12)CCCC1(c2ccc(F)cc2)OCc2cc(C#N)ccc21 (stereo not shown) [Compound 12r, 1-[3-[[3-(5-Chloro-1H-indol-3-yl)propyl]methylamino]propyl]-1-(4-fluorophenyl)-1,3-dihydroisobenzofuran-5-carbonitrile]	16 nM		47% inh. at 100 nM	
C=CCN(CCCC1(c2ccc(F)cc2)OCc2cc(C#N)ccc21)CCOCc1ccccc1 (stereo not shown) [Compound 4r, 1-[3-[(2-Benzyloxyethyl)(prop-2-en-1-yl)amino]propyl]-1-(4-fluorophenyl)-1,3-dihydroisobenzofuran-5-carbonitrile]	11 nM		19% inh. at 100 nM	
C=CCN(CCCc1c[nH]c2ccccc12)CCCC1(c2ccc(F)cc2)OCc2cc(C#N)ccc21 (stereo not shown) [Compound 4t, 1-[3-[[3-(1H-Indol-3-yl)propyl](prop-2-en-1-yl)amino]propyl]-1-(4-fluorophenyl)-1,3-dihydroisobenzofuran-5-carbonitrile]			73% inh. at 100 nM	inhibition at 0.1 µM ([1]; read-out: Inhibition of 3H-5-CT binding % inhibition at 100 nM, at 100 nM, cloned human 5-HT1A receptors expressed in HeLa cells (HA7)): 69%
C=CCN(CCCC1(c2ccc(F)cc2)OCc2cc(C#N)ccc21)CCOc1ccccc1 (stereo not shown) [Compound 4i, 1-(4-Fluorophenyl)-1-[3-[[2-phenoxyethyl](prop-2-en-1-yl)amino]propyl]-1,3-dihydroisobenzofuran-5carbonitrile]	1.9 nM		26% inh. at 100 nM	
C=CCN(CCCC1(c2ccc(F)cc2)OCc2cc(C#N)ccc21)CCc1ccccc1OC (stereo not shown) [Compound 4d, 1-(4-Fluorophenyl)-1-[3-[[2-(2-methoxyphenyl)ethyl](prop-2-en-1-yl)amino]propyl]-1,3-dihydroisobenzofuran-5-carbonitrile]	4.5 nM		7% inh. at 100 nM	
C=CCN(CCCc1ccccc1OC)CCCC1(c2ccc(F)cc2)OCc2cc(C#N)ccc21 (stereo not shown) [Compound 4k, 1-(4-Fluorophenyl)-1-[3-[[3-(2-methoxyphenyl)propyl](prop-2-en-1-yl)amino]propyl]-1,3-dihydroisobenzofuran-5-carbonitrile]	0.42 nM	100 nM		
CCN(CCCC1(c2ccc(F)cc2)OCc2cc(C#N)ccc21)CCc1c[nH]c2ccc(F)cc12 (stereo not shown) [Compound 12j, 1-[3-[Ethyl[2-(5-fluoro-1H-indol-3-yl)ethyl]amino]propyl]-1-(4fluorophenyl)-1,3-dihydroisobenzofuran-5-carbonitrile]	7.9 nM	14 nM		
C=CCN(CCCC1(c2ccc(F)cc2)OCc2cc(C#N)ccc21)CCc1c[nH]c2ccc(F)cc12 (stereo not shown) [Compound 13b, 1-[3-[[2-(5-Fluoro-1H-indol-3-yl)ethyl](prop-2-en-1-yl)amino]propyl]-1-(4-fluorophenyl)-1,3-dihydroisobenzofuran-5-carbonitrile]	7.4 nM	44 nM		
COc1cccc(CCN(C)CCCC2(c3ccc(F)cc3)OCc3cc(C#N)ccc32)c1 (stereo not shown) [Compound 4b, 1-(4-Fluorophenyl)-1-[3-[[2-(3-methoxyphenyl)ethyl]methylamino]propyl]-1,3-dihydroisobenzofuran-5-carbonitrile]	63 nM		59% inh. at 100 nM	
CN(CCCc1cccc2c1OCCO2)CCCC1(c2ccc(F)cc2)OCc2cc(F)ccc21.O=C(O)C(=O)O (stereo not shown)				melting point: 131 to 133 °C
COc1ccc(OC)c(CCN(C)CCCC2(c3ccc(F)cc3)OCc3cc(C#N)ccc32)c1 (stereo not shown) [Compound 4e, 1-[3-[[2-(2,5-Dimethoxyphenyl)ethyl]methylamino]propyl]-1-(4-fluorophenyl)-1,3-dihydroisobenzofuran-5-carbonitrile]		160 nM		IC50 [1]: 17 nM
CN(CCCc1c[nH]c2c(F)cccc12)CCCC1(c2ccc(F)cc2)OCc2cc(F)ccc21 (stereo not shown) [Compound 12d, 5-Fluoro-1-[3-[[3-(7-fluoro-1H-indol-3-yl)propyl]methylamino]propyl]-1-(4-fluorophenyl)-1,3dihydroisobenzofuran]	31 nM	12 nM		
CCN(CCCc1c[nH]c2ccc(Br)cc12)CCCC1(c2ccc(F)cc2)OCc2cc(C#N)ccc21 (stereo not shown) [Compound 12ad, 1-(3-[[3-(5-Bromo-1H-indol-3-yl)propyl]ethylamino]propyl]-1-(4fluorophenyl)-1,3-dihydroisobenzofuran-5-carbonitrile]	21 nM		35% inh. at 100 nM	
